Reference: patent US12037344B2, “NLRP3 modulators” (INNATE TUMOR IMMUNITY, INC., priority 2018, dated 2024)
Where two headings read alike, the source gives them in different places.

Assays:
TLR7 = molecular target: T1, TLR7 (Homo sapiens, UniProt Q9NYK1); test: In vitro human TLR7 binding reporter assay (HEK-Blue, NF-kB/AP1-inducible SEAP); assay type: cell-based; settings: read-out: TLR7 Agonist EC50
T1 construct: human HEK-Blue cells co-expressing a TLR7 or TLR8 gene
T1 sequence (Q9NYK1 27-1049): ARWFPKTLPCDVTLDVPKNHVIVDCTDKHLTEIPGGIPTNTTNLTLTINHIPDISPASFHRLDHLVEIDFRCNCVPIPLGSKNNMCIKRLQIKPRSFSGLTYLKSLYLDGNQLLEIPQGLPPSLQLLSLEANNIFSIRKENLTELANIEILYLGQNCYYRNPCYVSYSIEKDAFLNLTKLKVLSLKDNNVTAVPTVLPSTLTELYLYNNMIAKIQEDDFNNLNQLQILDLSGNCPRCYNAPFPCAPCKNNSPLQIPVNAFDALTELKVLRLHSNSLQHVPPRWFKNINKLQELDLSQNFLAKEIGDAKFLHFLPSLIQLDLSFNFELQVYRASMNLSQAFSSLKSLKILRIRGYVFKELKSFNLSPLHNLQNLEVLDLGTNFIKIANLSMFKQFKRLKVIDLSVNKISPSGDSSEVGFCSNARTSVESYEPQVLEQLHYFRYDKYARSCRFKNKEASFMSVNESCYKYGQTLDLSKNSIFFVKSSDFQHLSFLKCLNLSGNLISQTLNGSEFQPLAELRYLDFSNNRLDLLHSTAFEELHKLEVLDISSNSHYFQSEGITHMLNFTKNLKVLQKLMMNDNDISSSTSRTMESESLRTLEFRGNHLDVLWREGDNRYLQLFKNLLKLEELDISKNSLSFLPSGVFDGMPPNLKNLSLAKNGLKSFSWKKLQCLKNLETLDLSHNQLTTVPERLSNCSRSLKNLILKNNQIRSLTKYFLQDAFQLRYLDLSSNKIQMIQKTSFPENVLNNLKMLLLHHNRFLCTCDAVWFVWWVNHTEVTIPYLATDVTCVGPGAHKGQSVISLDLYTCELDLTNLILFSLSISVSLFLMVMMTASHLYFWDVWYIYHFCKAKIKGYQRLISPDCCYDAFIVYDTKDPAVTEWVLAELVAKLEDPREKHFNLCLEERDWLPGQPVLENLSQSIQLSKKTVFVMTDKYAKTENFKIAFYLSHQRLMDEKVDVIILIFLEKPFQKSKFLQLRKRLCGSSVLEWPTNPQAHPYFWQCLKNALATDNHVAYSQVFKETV
Outline: (§1)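 Cells are seeded and grown for 24 h. Compounds or DMSO are then added and incubated 18 h at 37 °C. Quanti-Blue is added, and SEAP is read after thirty minutes. EC50 values are normalized, with RLU from 50 μM reference standard setting 100% Ymax.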

THP-1 cells = test: Measurement of IL-1β production, hTRF protocol (second alternative procedure), THP-1 cells; assay type: cell-based, human; settings: read-out: NLRP3 hILIB EC50
Outline: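 Compounds, dilution series starting at a final 10 μM, were incubated 2 hours at 37° C with PMA-differentiated THP-1 cells (50 ng/ml overnight; 50,000 cells/well, 2% FBS RPMI). Released IL-1β quantified in supernatant by hTRF kit with 1:40 antibody dilution, 4° C overnight, 665/615 nm ratio.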

TLR8 = molecular target: T2, TLR8 (Homo sapiens, UniProt Q9NR97); test: In vitro human TLR8 binding reporter assay (HEK-Blue, NF-kB/AP1-inducible SEAP); assay type: cell-based; settings: read-out: TLR8 Agonist EC50
T2 construct: human HEK-Blue cells co-expressing a TLR7 or TLR8 gene
T2 sequence (Q9NR97 27-1041): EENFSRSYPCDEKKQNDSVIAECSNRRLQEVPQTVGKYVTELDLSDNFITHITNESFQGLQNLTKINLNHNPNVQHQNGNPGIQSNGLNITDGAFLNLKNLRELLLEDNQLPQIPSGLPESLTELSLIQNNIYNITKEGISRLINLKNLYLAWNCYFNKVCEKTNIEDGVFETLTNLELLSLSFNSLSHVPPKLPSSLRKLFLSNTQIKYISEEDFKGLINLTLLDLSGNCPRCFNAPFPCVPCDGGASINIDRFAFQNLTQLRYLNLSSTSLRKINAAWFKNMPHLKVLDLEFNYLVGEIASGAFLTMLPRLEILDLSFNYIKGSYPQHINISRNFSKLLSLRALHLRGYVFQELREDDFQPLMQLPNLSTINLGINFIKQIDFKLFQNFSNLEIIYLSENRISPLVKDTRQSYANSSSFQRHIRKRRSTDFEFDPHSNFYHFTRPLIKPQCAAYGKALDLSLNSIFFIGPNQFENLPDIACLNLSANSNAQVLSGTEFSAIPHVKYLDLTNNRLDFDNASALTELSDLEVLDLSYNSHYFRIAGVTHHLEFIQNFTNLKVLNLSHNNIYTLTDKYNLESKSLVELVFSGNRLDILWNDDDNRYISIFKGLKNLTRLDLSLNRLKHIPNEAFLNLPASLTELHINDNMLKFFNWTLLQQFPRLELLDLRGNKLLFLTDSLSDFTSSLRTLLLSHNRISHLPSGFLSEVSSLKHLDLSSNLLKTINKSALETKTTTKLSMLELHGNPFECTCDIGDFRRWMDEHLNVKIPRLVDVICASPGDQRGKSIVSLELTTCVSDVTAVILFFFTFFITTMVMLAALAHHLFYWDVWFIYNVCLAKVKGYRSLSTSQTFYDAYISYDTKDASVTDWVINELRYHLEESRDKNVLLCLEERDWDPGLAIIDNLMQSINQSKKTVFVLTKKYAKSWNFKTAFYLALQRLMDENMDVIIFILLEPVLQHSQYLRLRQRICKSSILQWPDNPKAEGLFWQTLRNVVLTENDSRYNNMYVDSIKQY
Outline: as §1

[1] = Homo sapiens, THP-1, IL-1β production, human
[2] = Homo sapiens, THP-1, IL-1β production, human cells

With `Nc1nc2cc(-c3cc[nH]n3)ccc2c2nn(C[C@H]3CCCO3)cc12` [Example 329] as the molecule, how does the EC50 (TLR7; activity range class) read?
The EC50 was over 100 µM.

And the EC50 (THP-1 cells; [1])?
Its EC50 is 0.31 µM.

What about the EC50 (TLR8; activity range class) of the same molecule?
The EC50 was over 100 µM.

How did the EC50 (TLR7; activity range class) turn out when `Nc1nc2cc(-c3cc[nH]n3)ccc2c2nn(CCNC(=O)c3ccccn3)cc12` [Example 150, N-{2-[4-amino-7-(1H-pyrazol-3-yl)-2H-pyrazolo[4,3-c]quinolin-2-yl]ethyl}pyridine-2-carboxamide] was run?
Its EC50 is over 100 µM.

And the EC50 (THP-1 cells; [1])?
The EC50 was 0.07 µM.

And the EC50 (TLR8; activity range class)?
The EC50 was over 100 µM.

`CC1(O)CCCC1n1cc2c(N)nc3cc(-c4cc[nH]n4)ccc3c2n1` (single isomer, unassigned) [Example 345] was tested. Which EC50 (TLR7; activity range class) did it give?
Its EC50 is over 100 µM.

And the EC50 (THP-1 cells; IL-1β production, human)?
The EC50 was 2.03 µM.

What about the EC50 (TLR8; activity range class) of the same molecule?
The EC50 was over 100 µM.

Which EC50 (TLR7; activity range class) does the source give for `Nc1nc2cc(-c3cc[nH]n3)ccc2c2cn(CCCOc3ccccn3)nc12` [Example 3, 7-(1H-pyrazol-3-yl)-2-[3-(pyridin-2-yloxy)propyl]-2H-pyrazolo[3,4-c]quinolin-4-amine] here?
The EC50 was over 100 µM.

And the EC50 (THP-1 cells; [1])?
Its EC50 is 0.56 µM.

What about the EC50 (TLR8; activity range class) of the same molecule?
Its EC50 is over 100 µM.

How did the EC50 (TLR7; activity range) turn out when `CC(=O)NC(C)CCn1cc2c(N)nc3cc(-n4cccn4)ccc3c2n1` (stereo not drawn) [Example 425] was run?
Its EC50 is over 100 µM.

What about the EC50 (THP-1 cells; [2]) of the same molecule?
Its EC50 is 5.73 µM.

And the EC50 (TLR8; activity range)?
The EC50 was over 100 µM.

For `CC(C)(F)C(=O)NCCn1nc2c(N)nc3cc(-c4ccn[nH]4)ccc3c2n1` [Example 157, N-{2-[4-amino-7-(1H-pyrazol-5-yl)-2H-[1,2,3]triazolo[4,5-c]quinolin-2-yl]ethyl}-2-fluoro-2-methylpropanamide], which EC50 (TLR7; activity range class) is on record?
Its EC50 is over 100 µM.

And the EC50 (THP-1 cells; [1])?
The EC50 was 5.17 µM.

And the EC50 (TLR8; activity range class)?
The EC50 was over 100 µM.

For `CCC(=O)NCCn1cc2c(n1)c(N)nc1cc(-c3cc[nH]n3)ccc12` [Example 48], which EC50 (TLR7; activity range class) is on record?
Its EC50 is over 100 µM.

And the EC50 (THP-1 cells; [1])?
The EC50 was 5.2 µM.

What about the EC50 (TLR8; activity range class) of the same molecule?
The EC50 was over 100 µM.

With `Nc1nc2cc(-c3cc[nH]n3)ccc2c2nn(CC(O)C(F)(F)F)cc12` (stereo not drawn) [Example 245] as the molecule, how does the EC50 (TLR7; activity range class) read?
Its EC50 is over 100 µM.

What about the EC50 (THP-1 cells; [1]) of the same molecule?
The EC50 was 0.94 µM.

What about the EC50 (TLR8; activity range class) of the same molecule?
The EC50 was over 100 µM.

What does the source list for `Nc1nc2cc(-n3cccn3)ccc2c2cn(C[C@H]3CCC(=O)N3)nc12` [Example 16]?
EC50 (TLR7; activity range class): 20 to 100 µM; EC50 (THP-1 cells; [1]): 11.3 µM; EC50 (TLR8; activity range class): > 100 µM

For `CC(O)Cn1cc2c(n1)c(N)nc1cc(-c3ccn[nH]3)ccc12` (stereo not drawn) [Example 451], which EC50 (TLR7; activity range) is on record?
The EC50 was over 100 µM.

What about the EC50 (THP-1 cells; [2]) of the same molecule?
Its EC50 is 1.26 µM.

And the EC50 (TLR8; activity range)?
Its EC50 is over 100 µM.

With `Nc1nc2cc(-c3cc[nH]n3)ccc2c2cn(CCNC(=O)c3cocn3)nc12` [Example 44] as the molecule, how does the EC50 (TLR7; activity range class) read?
The EC50 was over 100 µM.

What about the EC50 (THP-1 cells; [1]) of the same molecule?
Its EC50 is 0.63 µM.

What about the EC50 (TLR8; activity range class) of the same molecule?
The EC50 was over 100 µM.

Which results are given for `CC(C)(C)OC(=O)NCCn1cc2c(n1)c(N)nc1cc(-c3cccs3)ccc12` [Example 127, tert-butyl N-{2-[4-amino-7-(thiophen-2-yl)-2H-pyrazolo[3,4-c]quinolin-2-yl]ethyl}carbamate]?
EC50 (TLR7; activity range class): > 100 µM; EC50 (THP-1 cells; [1]): 1.05 µM; EC50 (TLR8; activity range class): > 100 µM

What does the source list for `Nc1nc2cc(-c3cc[nH]n3)ccc2c2cn(CCC(=O)Nc3ccccc3)nc12` [Example 23]?
EC50 (TLR7; activity range class): > 100 µM; EC50 (THP-1 cells; [1]): 1.39 µM; EC50 (TLR8; activity range class): > 100 µM

Which EC50 (TLR7; activity range class) does the source give for `COCCn1cc2c(N)nc3cc(-c4cccs4)ccc3c2n1` [Example 248, 2-(2-methoxyethyl)-7-(thiophen-2-yl)-2H-pyrazolo[4,3-c]quinolin-4-amine] here?
Its EC50 is over 100 µM.

What about the EC50 (THP-1 cells; [1]) of the same molecule?
The EC50 was 0.65 µM.

What about the EC50 (TLR8; activity range class) of the same molecule?
The EC50 was over 100 µM.

For `CCn1cc2c(N)nc3cc(-c4cc[nH]n4)ccc3c2n1` [Example 334], which EC50 (TLR7; activity range class) is on record?
The EC50 was over 100 µM.

And the EC50 (THP-1 cells; [1])?
Its EC50 is 0.11 µM.

What about the EC50 (TLR8; activity range class) of the same molecule?
Its EC50 is over 100 µM.

For `Nc1nc2cc(-c3cc[nH]n3)ccc2c2[nH]c(CCNC(=O)c3cnco3)cc12` [Example 500], which EC50 (TLR7; activity range) is on record?
Its EC50 is over 100 µM.

And the EC50 (THP-1 cells; [2])?
The EC50 was 0.37 µM.

And the EC50 (TLR8; activity range)?
Its EC50 is over 100 µM.
